Experimental data published in patent US5216001A, “Indole derivatives” (H. Lunbeck A/S, priority 1990, dated 1993).
Like-named read-outs stand apart in the source and are kept apart here.

Columns and labels:
[1] = target: T1, serotonin S2 (5-HT2) receptors (Rattus norvegicus, UniProt P14842); assay: inhibition of 3H-ketanserin binding to serotonin S2 (5-HT2) receptors in rat cortex in vitro; conditions: 3H-ketanserin 0.5 nM, rat cortex membranes, read-out: Binding IC50, 3H Ket.
T1 construct: cortical tissue is dissected and weighed; from tissue; host or cells: cerebral cortex membranes of male Wistar (Mol:Wist) rats
Procedure: Method in Hyttel, Pharmacology & Toxicology, 61, 126-129. 1987.
Male Wistar (Mol:Wist) rats (125-250 g) are sacrifices and cortical tissue is dissected and weighed. The tissue is homogenized (Ultra Turrax, 10 sec.) in 10 ml of ice-cold 50 mM tris buffer pH 7.7 (at 25° C.). The centrifuge glassware used in this step has been rinsed by sonication for 10 min. in ethanol. The homogenate is centrifuged twice at 20,000 g for 10 min. at 4° C. with rehomogenization of the pellet in 10 ml ice-cold buffer. The final pellet is homogenized in 500 vol (w/v) ice-cold buffer.
Incubation tubes kept on ice in triplicate receive 100 μl of drug solution in water (or water for total binding) and 2000 μl of tissue suspension (final tissue content corresponds to 4 mg original tissue). […] After incubation for 30 min. the samples are filtered under vacuum (0-50 mBar) through Whatman GF/F filters (25 mm). The tubes are rinsed with 5 ml ice-cold buffer which are then poured on the filters. Thereafter, the filters are washed with 2×5 ml of buffer. The filters are placed in counting vials and 4 ml of appropriate scintillation fluid (e.g., Picofluor™15) are added. After shaking for 1 h and storage 2 hrs in the dark the content of radioactivity is determined by liquid scintillation counting. Specific binding is obtained by subtracting the nonspecific binding in the presence of 1 μM mianserin. For determination of the inhibition of binding five concentrations of drugs covering 3 decades are used.
The IC50 value is determined as the concentration at which the binding is 50% of the total binding in control samples minus the nonspecific binding in the presence of 1 μM mianserin.

[2] = target: T2, dopamine D-2 receptors (Rattus norvegicus, UniProt P61169); assay: inhibition of 3H-spiperone binding to dopamine D-2 receptors in rat corpus striatum in vitro
T2 construct: striatal tissue is dissected and weighed; from tissue; host or cells: corpus striatum membranes of male Wistar rats
Procedure: INHIBITION OF ^3 H-SPIPERONE BINDING TO DOPAMINE D-2 RECEPTORS IN RAT CORPUS STRIATUM IN VITRO
By this method the inhibition by drugs of the binding of ^3 H-spiperone (0.5 nM) to dopamine D-2 receptors in membranes from rat corpus striatum is determined in vitro. Method and results in Hyttel and Larsen, J. Neurochem, 44, 1615-1622, 1985).
(§1) Male Wistar (Mol:Wistar) rats (125-250 g) are sacrificed and striatal tissue is dissected and weighed. The tissue is homogenized (Ultra Turrax, 10 sec.) in 10 ml of ice-cold 50 mM K-phosphate buffer pH 7.4 (at 25° C.). The homogenate is centrifuged twice at 20,000 g for 10 min. at 4° C. with rehomogenization of the pellet in 10 ml ice-cold buffer. The final pellet is homogenized in 1300 vol (w/v) ice-cold buffer.
Incubation tubes kept on ice in triplicate receive 100 μl of drug solution in water (or water for total binding) and 4000 μl of tissue suspension (final tissue content corresponds to 3.08 mg original tissue). The binding experimental is initiated by addition of 100 μl of ^3 H-spiperone (final concentration 0.5 nM) and by placing the tubes in a 37° C. water bath. After incubation for 10 min. the samples are filtered under vacuum (0-50 mBar) through Whatman GF/F filters (25 mm). The tubes are rinsed with 5 ml ice-cold buffer which are then poured on the filters. Thereafter, the filters are washed with 2×5 ml of buffer. The filters are placed in counting vials and 4 ml of appropriate scintillation fluid (e.g. Picofluor ™15) are added. After shaking for 1 h and storage 2 hrs in the dark the content of radioactivity is determined by liquid scintillation counting. Specific binding is obtained by subtracting the nonspecific binding in the presence of 10 μM of 6,7-ADTN.
(§2) For determination of the inhibition of binding five concentrations of drugs covering 3 decades are used.
England, specific activity 15-25 Ci/mmol.

[3] = target: α1 adrenoceptors; assay: inhibition of 3H-prazosin binding to α1 adrenoceptors in rat brain in vitro; conditions: 3H-prazosin 0.25 nM, rat brain membranes, read-out: Binding IC50, 3H Praz.
Procedure: INHIBITION OF ^3 H-PRAZOSIN BINDING TO α1 ADRENOCEPTORS IN RAT BRAIN IN VITRO
Method and results in Hyttel and Larsen, J. Neurochem, 44, 1615-1622, 1985; Skarsfeldt and Hyttel, Eur. J. Pharmacol. 125, 323-340, 1986.
as §1, with “(Mol:Wist)” for “(Mol:Wistar)”, “(125-200” for “(125-250”, “brain” for “striatal”, “[…] Tris” for “mM K-phosphate”, “7.7” for “7.4”, “400” for “1300”
Incubation tubes kept on ice in triplicate receive 100 μl of drug solution in water (or water for total binding) and 4000 μl of tissue suspension (final tissue content corresponds to 10 mg original tissue). The binding experiment is initiated by addition of 100 μl of ^3 H-Prazosin (final concentration 0.25 nM) and by placing the tubes in a 25° C. water bath. After incubation for 20 min. the samples are filtered under vacuum (0-50 mBar) through Whatman GF/F filters (25 mm). The tubes are rinsed with 5 ml ice-cold buffer which then are poured on the filters. Thereafter, the filters are washed with 5 ml of buffer. The filters are placed in counting vials and 4 ml of appropriate scintillation fluid (e.g. Picofluor™15) are added. After shaking for 1 h and storage 2 hrs in the dark the content of radioactivity is determined by liquid scintillation counting. Specific binding is obtained by subtracting the nonspecific binding in the presence of 1 μM of Prazosin.
as §2
The measured cpm are plotted against drug concentration on semilogarithmic paper and the best fitting S-shaped curve is drawn. The IC50 value is determined as the concentration at which the binding is 50% of the total binding in control samples minus the nonspecific binding in the presence of 1 μM of Prazosin. ^3 H-Prazosin=[furoyl-5-^3 H]-Prazosin from New England Nuclear, specific activity approximately 20 Ci/mmol.

[4] = 3H-spiperone 0.5 nM, rat corpus striatum membranes, in vitro, read-out: Binding IC50, 3H Spi.

T1 sequence (P14842 whole entry): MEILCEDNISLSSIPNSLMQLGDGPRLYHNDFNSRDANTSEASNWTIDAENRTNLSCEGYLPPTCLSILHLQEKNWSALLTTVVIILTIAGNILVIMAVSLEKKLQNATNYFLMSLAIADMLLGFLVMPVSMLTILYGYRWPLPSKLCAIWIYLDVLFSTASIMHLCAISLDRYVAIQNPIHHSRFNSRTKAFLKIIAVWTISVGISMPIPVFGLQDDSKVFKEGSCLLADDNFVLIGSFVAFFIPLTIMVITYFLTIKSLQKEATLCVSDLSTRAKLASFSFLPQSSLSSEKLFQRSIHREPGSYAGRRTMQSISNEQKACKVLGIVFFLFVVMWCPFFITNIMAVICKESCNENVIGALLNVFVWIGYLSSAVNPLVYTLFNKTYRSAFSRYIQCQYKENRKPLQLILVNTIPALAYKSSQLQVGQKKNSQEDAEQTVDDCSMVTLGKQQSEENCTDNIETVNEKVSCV
T2 sequence (P61169 whole entry): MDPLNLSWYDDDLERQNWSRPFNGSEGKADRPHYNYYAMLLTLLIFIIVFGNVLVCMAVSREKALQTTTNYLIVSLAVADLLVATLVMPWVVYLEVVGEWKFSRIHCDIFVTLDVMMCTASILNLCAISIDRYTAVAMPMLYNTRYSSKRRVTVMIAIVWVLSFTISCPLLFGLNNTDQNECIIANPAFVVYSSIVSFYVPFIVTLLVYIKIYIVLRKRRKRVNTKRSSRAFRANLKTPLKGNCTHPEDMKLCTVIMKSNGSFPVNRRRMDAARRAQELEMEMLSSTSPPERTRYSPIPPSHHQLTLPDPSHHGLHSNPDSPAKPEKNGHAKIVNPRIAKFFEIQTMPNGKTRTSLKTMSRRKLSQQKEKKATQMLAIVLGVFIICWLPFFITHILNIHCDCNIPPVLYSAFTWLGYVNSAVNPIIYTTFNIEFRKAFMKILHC

Row | Structure (SMILES) | IC50 [1] | IC50 [2] | IC50 [3] | IC50 [2, 4]
1 | CC(C)N1CCN(CCN2CC=C(c3cn(-c4ccc(F)cc4)c4cc(Cl)ccc34)CC2)C1=O [Compound 2a, 6-chloro-1-(4-fluorophenyl)-3-[1-[2-[3-(2-propyl)-2-imidazolidinon-1-yl]ethyl]-1,2,3,6-tetrahydropyridin-4-yl]-1H-indole] | 0.0035 µM | 0.066 µM | 0.055 µM | –
2 | CC(C)N1CCN(CCN2CCC(c3cn(-c4ccc(F)cc4)c4cc(C(F)(F)F)ccc34)CC2)C1=O [Compound 4c, 1-(4-fluorophenyl)-3-[1-[2-[3-(2-propyl)-2-imidazolidinon-1-yl]ethyl]-4-piperidyl]-6-trifluoromethyl-1H-indole] | 0.0029 µM | – | 0.091 µM | 0.28 µM
3 | O=C1CCCN1CCN1CCC(c2cn(-c3ccc(F)cc3)c3cc(C(F)(F)F)ccc23)CC1 [Compound 4e, 1-(4-fluorophenyl)-3-[1-[2-(2-pyrrolidinon-1-yl)ethyl]-4-piperidyl]-6-trifluoromethyl-1H-indole] | 0.0028 µM | – | 0.049 µM | 0.3 µM
4 | COc1ccc2c(C3CCN(CCN4CCN(C(C)C)C4=O)CC3)cn(-c3ccc(F)cc3)c2c1 [Compound 4i, 1-(4-fluorophenyl)-6-methyoxy-3-[1-[2-[3-(2-propyl)-2-imidazolidinon-1-yl]ethyl]-4-piperidyl]-1H-indole] | 0.0071 µM | – | 0.14 µM | 0.71 µM
5 | CC(C)c1ccc2c(C3CCN(CCN4CCN(C(C)C)C4=O)CC3)cn(-c3ccc(F)cc3)c2c1 [Compound 5c, 1-(4-fluorophenyl)-6-(2-propyl)-3-[1-[2-[3-(2-propyl)-2-imidazolidinon-1-yl]ethyl]-4-piperidyl]-1H-indole] | 0.016 µM | – | 0.73 µM | 2 µM
6 | CC(C)N1CCN(CCN2CCC(c3cn(-c4ccc(F)cc4)c4cc(C#N)ccc34)CC2)C1=O [Compound 5i, 6-cyano-1-(4-fluorophenyl)-3-[1-[2-[3-(2-propyl)-2-imidazolidinon-1-yl]ethyl]-4-piperidyl]-1H-indole] | 0.0086 µM | – | – | 1.1 µM
7 | N#Cc1ccc2c(C3CCN(CCN4CCNC4=O)CC3)cn(-c3ccc(F)cc3)c2c1 [Compound 5j, 6-cyano-1-(4-fluorophenyl)-3-[1-[2-(2-imidazolidinon-1-yl)ethyl]-4-piperidyl]-1H-indole] | 0.013 µM | – | – | 1.5 µM
8 | CC(C)N1CCN(CCN2CCN(c3cn(-c4ccc(F)cc4)c4cc(Cl)ccc34)CC2)C1=O [Compound 6a, 6-chloro-1-(4-fluorophenyl)-3-[4-[2-[3-(2-propyl)-2-imidazolidinon-1-yl]ethyl]-1-piperazinyl]-1H-indole] | 0.0027 µM | – | – | 0.081 µM
9 | Cc1ccc2c(C3CCN(CCNC(=O)NC(C)C)CC3)cn(-c3ccc(F)cc3)c2c1 [Compound 9a, 1-(4-fluorophenyl)-3-[1-[2-[3-(2-propyl)-1-ureido]-1-ethyl]-4-piperidyl]-6-methyl-1H-indole] | 0.0018 µM | – | 0.076 µM | 0.3 µM
10 | CCN(CCN1CCC(c2cn(-c3ccc(F)cc3)c3cc(Cl)ccc23)CC1)C(=O)NC(C)C [Compound 9d, 6-chloro-1-(4-fluorophenyl)-3-[1-[2-[1-ethyl-3-(2-propyl)-1-ureido]-1-ethyl]-4-piperidyl]-1H-indole] | 0.0019 µM | – | – | 0.15 µM
11 | CC(C)N1CCN(CCN2CCC(c3cn(-c4ccc(F)cc4)c4cc(Cl)ccc34)CC2)C1=S [Compound 13a, 6-chloro-1-(4-fluorophenyl)-3-[1-[2-[3-(2-propyl)-2-imidazolidinthion-1-yl]ethyl]-4-piperidyl]-1H-indole] | 0.0044 µM | – | 0.11 µM | 0.27 µM
12 | Cc1ccc2c(C3CCN(CCN4CCN(C(C)C)C4=O)CC3)cn(-c3cccs3)c2c1 [Compound 15b, 6-methyl-3-[1-[2-[3-(2-propyl)-2-imidazolidinon-1-yl]ethyl]-4-piperidyl]-1-(2-thie-nyl)-1H-indole] | 0.0067 µM | – | – | 2.5 µM
13 | Cc1ccc2c(C3CCN(CCN4CCN(C(C)C)C4=O)CC3)cn(-c3ccsc3)c2c1 [Compound 15c, 6-methyl-3-[1-[2-[3-(2-propyl)-2-imidazolidinon-1-yl]ethyl]-4-piperidyl]-1-(3-thie-nyl)-1H-indole] | 0.0026 µM | – | 0.33 µM | 1 µM
14 | Cc1ccc2c(C3CCN(CCN4CCN(C(C)C)C4=O)CC3)cn(-c3ccoc3)c2c1 [Compound 15d, 1-(3-furanyl)-6-methyl-3-[1-[2-[3-(2-propyl)-2-imidazolidinon-1-yl]ethyl]-4-piperi-dyl]-1H-indole] | 0.0093 µM | – | – | 4.5 µM
15 | Cc1ccc2c(C3CCN(CCN4CCN(C(C)C)C4=O)CC3)cn(-c3ccncc3)c2c1 [Compound 15e, 6-methyl-3-[1-[2-[3-(2-propyl)-2-imidazolidinon-1-yl]ethyl]-4-piperidyl]-1-(4-pyri-dyl)-1H-indole] | 0.0076 µM | – | – | 3.5 µM
16 | Cc1ccc2c(C3CCN(CCN4CCN(C(C)C)C4=O)CC3)cn(-c3ccccc3F)c2c1 [Compound 15f, 1-(2-fluorophenyl)-3-[1-[2-[3-(2-propyl)-2-imidazolidinon-1-yl]ethyl]-4-piperidyl]-6-methyl-1H-indole] | 0.0025 µM | – | 0.37 µM | 0.73 µM
17 | Cc1ccc2c(C3CCN(CCN4CCN(C(C)C)C4=O)CC3)cn(-c3cccc(C(F)(F)F)c3)c2c1 [Compound 15i, 3-[1-[2-[3-(2-propyl)-2-imidazolidinon-1-yl]ethyl]-4-piperidyl]-6-methyl-1-(3-trifluoromethylphenyl)-1H-indole] | 0.15 µM | – | – | 3.2 µM
18 | O=C1NCCN1CCN1CCC(c2cn(-c3ccccc3)c3cc(Cl)ccc23)CC1 [Compound 15m, 6-chloro-3-[1-[2-[2-imidazolidinon-1-yl]ethyl]-4-piperidyl]-1-phenyl-1H-indole] | 0.0044 µM | – | – | 0.41 µM
